The nature of series [1]: Static absorption spectra (Qy(0,0) band). It is filed as physicochemical. To be noted: for λQy abs: Qy(0,0) absorption band, in toluene at room temperature; for λQy/IB: ratio of the peak intensities of the Qy(0,0) and B bands, toluene, room temperature. How it is done: (§1) Static absorption and fluorescence measurements were performed as described previously.^69,70 Argon-purged solutions of the samples in toluene with an absorbance of ≦0.10 at the excitation wavelength were used for the fluorescence spectral, quantum yield, and lifetime measurements. Fluorescence lifetimes were obtained using a phase modulation technique and Soret-band excitation^70 or via decay measurements using Soret-region excitation pulses obtained from a nitrogen-pumped dye laser and time-correlated-single-photon-counting detection. Emission measurements employed 2-4 nm excitation- and detection-monochromator bandwidths and 0.2 nm data intervals. Emission spectra were corrected for detection-system spectral response.

Series [2] is described as follows: Static fluorescence spectra and fluorescence quantum yield. It is filed as physicochemical. To be noted: for λQy em: Qy(0,0) emission band, in toluene at room temperature; for Φf fluorescence quantum yield: toluene, room temperature, argon-purged, error ± 7%. How it is done:
as §1

Series [3] in a line: Singlet excited-state lifetime by fluorescence techniques. It is filed as physicochemical. To be noted: toluene, room temperature; error ± 7%. How it is done:
as §1

The conditions of series [4]: cited from earlier work.
The conditions of series [5]: organic solvents; cited from earlier work.
For series [6] the following is noted: cited from earlier work. This is another data set of the same source.

We go through 15 compounds from US9303165B2, “Bacteriochlorin imides” (North Carolina State University, priority 2011, dated 2016).

Structures are written as SMILES. Read-outs that look alike come from different tables or passages of the source.

Turning to `CC[C@H]1c2cc3[nH]c4c(c3C)C(=O)[C@H](C(=O)OC)c4c3nc(cc4[nH]c(cc(n2)[C@@H]1C)c(C(C)=O)c4C)[C@@H](C)[C@@H]3CCC(=O)OC/C=C(\C)CCC[C@H](C)CCC[C@H](C)CCCC(C)C` [BPh-a, Bacteriopheophytin a], in series [1], the λQy abs amounted to 758 nm and the λQy/IB was determined as 0.69. Further, in series [2], the λQy em was 768 nm and the “Φf fluorescence quantum yield” value came out at 0.10. In addition, in series [3], the “τs lifetime of the lowest singlet excited state” value (“τs lifetime” below) stood at 2.7 ns. Further, the “Qy(0,0) absorption” value in series [4] (hydrocarbon / organic solvents) was 750-760 nm. Besides, in series [5], the “average singlet excited-state lifetime” value is 2.0-2.7 ns.
As for `CC(=O)c1cc2cc3nc(cc4[nH]c(cc5nc(cc1[nH]2)CC5(C)C)cc4C(C)=O)CC3(C)C` [HBC-A], in series [1], the λQy abs is 768 nm and the λQy/IB was 1.2. In series [2], the λQy em is listed as 771 nm and the “Φf fluorescence quantum yield” value was determined as 0.11. In addition, the “τs lifetime” value in series [3] came out at 2.9 ns.
For the compound `CCOC(=O)c1c(CC)c2cc3nc(c4c5[nH]c(cc6nc(cc1[nH]2)CC6(C)C)c(CC)c5C(=O)N(Cc1ccccc1)C4=O)CC3(C)C` [HBC-I, 15^2-N-Benzyl-3-ethoxycarbonyl-2,12-diethyl-8,8,18,18-tetramethylbacteriochlorin-13,15-dicarboximide], in series [1], the λQy abs is on record as 818 nm and the λQy/IB was found to be 1.3. Also, in series [2], the λQy em worked out at 823 nm and the “Φf fluorescence quantum yield” value is given as 0.036. Further, the “Stokes shift (fluorescence Qy(0,0) to longer wavelength than absorption Qy(0,0))” value (from here on “Stokes shift”) in series [2] (in toluene) is reported as roughly 5 nm. Also, the “τs lifetime” value in series [3] is reported as 1.9 ns.
In series [1], `CC(=O)c1c(C)c2cc3nc(cc4[nH]c(cc5nc(cc1[nH]2)CC5(C)C)c(C)c4C(C)=O)CC3(C)C` [HBC-MeA, 3,13-Diacetyl-2,8,8,12,18,18-hexamethylbacteriochlorin] registered a λQy abs of 766 nm.
Turning to `CC1(C)Cc2cc3ccc(cc4nc(cc5ccc(cc1n2)[nH]5)CC4(C)C)[nH]3` [HBC], in series [1], the λQy abs came out at 713 nm and the λQy/IB was 0.85. Besides, in series [2], the λQy em is reported as 716 nm and the “Φf fluorescence quantum yield” value is 0.17. Further, the “τs lifetime” value in series [3] worked out at 4.0 ns.
On the same counts, the results for `COc1c2nc(cc3cc(C(C)=O)c(cc4nc(cc5cc(C(C)=O)c1[nH]5)C(C)(C)C4)[nH]3)C(C)(C)C2` [MeOBC-A, 3,13-Diacetyl-5-methoxy-8,8,18,18-tetramethylbacteriochlorin] are 740 nm, 0.96, 747 nm, 0.14 and 3.8 ns.
Take `CCOC(=O)c1c(CC)c2cc3nc(c(OC)c4[nH]c(cc5nc(cc1[nH]2)CC5)c(CC)c4C(=O)OCC)CC3` [MeOBC-EtEs, 2,12-diethyl-3,13-diethoxycarbonyl-5-methoxybacteriochlorin]: in series [1], the λQy abs turned out to be 739 nm and the λQy/IB came to 1.1. For the same compound, in series [2], the λQy em was 749 nm and the “Φf fluorescence quantum yield” value turned out to be 0.17. In addition, the “Stokes shift” value in series [2] (in toluene) is on record as roughly 15 nm. In addition, in series [3], the “τs lifetime” value is recorded as 4.3 ns.
On to `CCOC(=O)c1c(CC)c2cc3nc(c4c5[nH]c(cc6nc(c(OC)c1[nH]2)CC6(C)C)c(CC)c5C(=O)N(Cc1ccccc1)C4=O)CC3(C)C` [MeOBC-I, 15^2-N-Benzyl-3-ethoxycarbonyl-2,12-diethyl-5-methoxy-8,8,18,18-tetramethyl-bacteriochlorin-13,15-dicarboximide], for which, in series [1], the λQy abs is recorded as 793 nm and the λQy/IB was found to be 1.0. In addition, in series [2], the λQy em is given as 798 nm and the “Φf fluorescence quantum yield” value was determined as 0.052. The “Stokes shift” value in series [2] (in toluene) is reported as roughly 5 nm. Moreover, the “τs lifetime” value in series [3] is on record as 2.2 ns.
With `COc1c2nc(cc3[nH]c(cc4nc(cc5[nH]c1c(C(C)=O)c5C)C(C)(C)C4)c(C(C)=O)c3C)C(C)(C)C2` [MeOBC-MeA, 3,13-Diacetyl-5-methoxy-2,8,8,12,18,18-hexamethylbacteriochlorin], in series [1], the λQy abs turned out to be 743 nm and the λQy/IB is listed as 0.95. In series [2], the λQy em came out at 749 nm and the “Φf fluorescence quantum yield” value is reported as 0.13. In addition, the “τs lifetime” value in series [3] turned out to be 3.4 ns.
The like results for `COc1c2nc(cc3ccc(cc4nc(cc5ccc1[nH]5)C(C)(C)C4)[nH]3)C(C)(C)C2` [MeOBC] were, in that order, 709 nm, 0.87, 711 nm, 0.25 and 5.0 ns.
As to `COc1c2nc(cc3[nH]c4c(c5nc(cc6[nH]c1c(C(C)=O)c6C)C(C)(C)C5)CC(=O)c4c3C)C(C)(C)C2` [MeOBOP, 3-Acetyl-5-methoxy-2,8,8,12,18,18-hexamethylbacterio-13^1-oxophorbine], in series [1], the λQy abs was 733 nm and the λQy/IB is reported as 0.93. For the same compound, in series [2], the λQy em came out at 739 nm and the “Φf fluorescence quantum yield” value was 0.19. Moreover, the “Stokes shift” value in series [2] (in toluene) is roughly 5 nm. Moreover, the “τs lifetime” value in series [3] worked out at 4.6 ns.
`C=Cc1c(C)c2cc3nc(c4c5[n-]c(cc6nc(cc1[n-]2)C(C)=C6CC)c(C)c5C(=O)[C@@H]4C(=O)OC)[C@@H](CCC(=O)OC/C=C(\C)CCC[C@H](C)CCC[C@H](C)CCCC(C)C)[C@@H]3C.[Mg+2]` [chlorophyll a]: the “Φf of quantum yield standard” value is “same value as in benzene” in series [2] (in toluene) and 0.325 in series [6] (in benzene).
Regarding `C1=Cc2nc1c(-c1ccccc1)c1ccc([nH]1)c(-c1ccccc1)c1nc(c(-c3ccccc3)c3ccc([nH]3)c2-c2ccccc2)C=C1` [free base tetraphenylporphyrin], the “Φf of quantum yield standard” value in series [6] (free base) is 0.090.
As to `CC[C@H]1c2cc3[nH]c4c(c5nc(cc6[nH]c(cc(n2)[C@@H]1C)c(C(C)=O)c6C)[C@@H](C)[C@@H]5CCC(=O)OC)CC(=O)c4c3C` [methyl bacteriopyropheophorbide a], in series [4] (in CH2Cl2), the “Qy(0,0) absorption” value is 754 nm.
For `CC(=O)O[C@@H]1C[C@@H](O)[C@@H](C)OC1[C@]1(C)C(=O)c2cc3cc(C)c(cc4nc(cc5[nH]c(cc1n2)cc5C)C(=O)[C@@]4(C)C1O[C@H](C)[C@H](O)C[C@H]1OC(C)=O)[nH]3` (some centres unmarked) [tolyporphin A], the absorption wavelength in series [4] was 678 nm.
